Experimental data reported in patent US5478845A, “Piperidine derivatives” (Novo Nordisk A/S, priority 1993, dated 1995).
Where a name gives a salt, the structure may show the parent alone.

Experiments:
Design in all cases: species or system Male Wistar rats
[1] = target: T1, DOPAMINE D2 Receptor (Rattus norvegicus, UniProt P61169); assay: TEST 1: In Vitro Inhibition of DOPAMINE D2 Receptor Binding (3H-Spiroperidol, rat striatum); settings: 3H-Spiroperidol (0.05 nM), rat striatum membranes, 20 min. at 37° C.; read-out: TEST 1 IC50 (concentration inhibiting specific binding by 50%)
T1 construct: Male Wistar rats, 150-200 g are decapitated, striatum is removed quickly and weighed; from tissue; host or cells: rat striatum membrane fragments
Method: TEST 1: In Vitro Inhibition of DOPAMINE D2 Receptor Binding
(§1) Radioactive-labelled ligand ^3 H-Spiroperidol is incubated with isolated cell-membrane fragments at 37° C. for a given period of time. Following completed incubation, the incubate is filtered through GF/B filters which are rinsed following filtration to remove unspecifically adhered radioactivity. As opposed to low-molecular compounds, membrane fragments are not rinsed through the filters, the radioactivity bound to the filters is indicative of the amount of ligand bound specifically as well as nonspecifically to the membranes.
The procedure is performed in ice bath. Polytron kinematica is rinsed with milli-Q--H2 O before and after use. Male Wistar rats, 150-200 g are decapitated, striatum is removed quickly and weighed (approx. 50 mg). Striatum is transferred to a centrifuging vial containing 10 ml ice-cold D2 buffer. Homogenization is performed applying polytron kinematica (homogenizer) setting 6 for 20 sec. The homogenizer is rinsed with 10 ml D2 buffer in another centrifuging vial. The 10 ml rinsing buffer is added to the tissue vial. Centrifugation at 18,000 rpm for 10 min. at 4° C. Final pellet is transferred to 1,000×vol. of same buffer. (Ex. 50 mg striatum in 50 ml D2 buffer). Can be stored at 0° C. for at least 4 hours. Note that the tissue must be monogeneous (uniform) before use. If not, brief homogenization is performed. […]

[2] = target: T2, DOPAMINE D1 Receptor (Rattus norvegicus, UniProt P18901); assay: TEST 2: In Vitro Inhibition of DOPAMINE D1 Receptor Binding (3H-SCH 23390, rat striatum); settings: 3H-SCH 23390 (0.2 nM), rat striatum membranes, 60 min. at 30° C.; read-out: TEST 2 IC50 (concentration inhibiting specific binding by 50%)
T2 construct: Male Wistar rats, 150-200 g are decapitated; Striatum is removed quickly; from tissue; host or cells: rat striatum membrane fragments
Method: TEST 2: In Vitro Inhibition of DOPAMINE D1 Receptor Binding
Radioactive-labelled ligand ^3 H-SCH 23390 is incubated with isolated cell-membrane fragments in incubation buffer at 30° C. for a given period of time. Following completed incubation, the incubate is filtered through GF/B filters, which are rinsed following filtration to remove unspecifically adhered radioactivity. As opposed to low-molecular compounds, membrane fragments are not rinsed through the filters, the radioactivity bound to the filters indicates the amount of ligand bound specifically as well as nonspecifically to the membranes.
Male Wistar rats, 150-200 g are decapitated. Striatum is removed quickly, weighed (approx. 50 mg) and carefully homogenized in 100×vol. of buffer I applying glass/teflon homogenizer 10 up/down strokes. Ex.: 50 mg striatum is homogenized in […] buffer I. The homogenate is centrifuged at 18,000 rpm for 20 min. at 4° C., and the supernate is decanted. This step is performed three times, and each time the pellet is resuspended and homogenized in 100×vol. of buffer I. Following the third centrifugation, the pellet is suspended in 100×vol. of resuspension buffer and homogenized. The tissue is now ready for use. The tissue is stable at 0° C. for 8 hours.
200 μl test substance/H2 O/blind (cis-flupentixol 2 μM)
Incubation for 60 min. at 30° C.
10 ml of ice-cold 0.9% NaCl is added to the tubes. […]

[3] = target: T3, 5HT2-Receptor (Rattus norvegicus, UniProt P14842); assay: TEST 3: In Vitro Inhibition of 5HT2-Receptor Binding (3H-Ketanserine, rat frontal cortex); settings: 3H-Ketanserine (0.4 nM), rat frontal cortex membranes, 15 min. at 37° C.; read-out: TEST 3 IC50 (concentration inhibiting specific binding by 50%)
T3 construct: Male Wistar rats, 150-200 g are decapitated; Frontal cortex is removed quickly; from tissue; host or cells: rat frontal cortex membrane fragments
Method: TEST 3: In Vitro Inhibition of 5HT2 -Receptor Binding
as §1, with “^3 H-Ketanserine” for “^3 H-Spiroperidol”, “isolated cell membrane” for “isolated cell-membrane”, “GF/B filters,” for “GF/B filters”, “filters indicates” for “filters is indicative of”
The preparation is made in ice bath. Polytron kinematica is rinsed with milli-Q--H2 O before and after use. Male Wistar rats, 150-200 g are decapitated. Frontal cortex is removed quickly and weighed (approx. 200 mg). Frontal cortex is added to centrifuging vial containing 10 ml ice-cold D2 buffer. Homogenization applying polytron kinematica (homogenizer) setting 6 for 20 sec. The homogenizer is rinsed with 10 ml D2 buffer in another centrifuging vial. The 10 ml rinsing buffer is added to the tissue vial. Centrifuged at 18,000 rpm for 10 min. at 4° C. Final pellet is transferred to 125×vol. of same buffer. (Ex 200 mg in 25 ml D2 buffer). Can be stored for approx. 30 min. at 0° C.
25/μl ^3 H-Ketanserine (0.4 nM)
25/μl test substance/H2 O/blind cyproheptadine (2/μM)
Incubation for 15 min. at 37° C. […]

T3 sequence (P14842 whole entry, the tested form may be a part): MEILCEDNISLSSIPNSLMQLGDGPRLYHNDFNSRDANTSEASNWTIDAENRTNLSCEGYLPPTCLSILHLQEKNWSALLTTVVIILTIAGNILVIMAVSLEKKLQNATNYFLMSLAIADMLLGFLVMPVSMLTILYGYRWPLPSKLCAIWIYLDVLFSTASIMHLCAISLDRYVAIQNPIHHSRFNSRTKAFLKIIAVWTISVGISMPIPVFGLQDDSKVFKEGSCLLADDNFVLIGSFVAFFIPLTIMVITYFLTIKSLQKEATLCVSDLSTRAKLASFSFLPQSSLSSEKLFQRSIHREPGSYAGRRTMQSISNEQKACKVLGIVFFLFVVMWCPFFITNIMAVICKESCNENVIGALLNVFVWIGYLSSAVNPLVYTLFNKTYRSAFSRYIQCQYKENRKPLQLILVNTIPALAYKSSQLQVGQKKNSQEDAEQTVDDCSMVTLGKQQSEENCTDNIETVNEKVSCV
T2 sequence (P18901 whole entry, the tested form may be a part): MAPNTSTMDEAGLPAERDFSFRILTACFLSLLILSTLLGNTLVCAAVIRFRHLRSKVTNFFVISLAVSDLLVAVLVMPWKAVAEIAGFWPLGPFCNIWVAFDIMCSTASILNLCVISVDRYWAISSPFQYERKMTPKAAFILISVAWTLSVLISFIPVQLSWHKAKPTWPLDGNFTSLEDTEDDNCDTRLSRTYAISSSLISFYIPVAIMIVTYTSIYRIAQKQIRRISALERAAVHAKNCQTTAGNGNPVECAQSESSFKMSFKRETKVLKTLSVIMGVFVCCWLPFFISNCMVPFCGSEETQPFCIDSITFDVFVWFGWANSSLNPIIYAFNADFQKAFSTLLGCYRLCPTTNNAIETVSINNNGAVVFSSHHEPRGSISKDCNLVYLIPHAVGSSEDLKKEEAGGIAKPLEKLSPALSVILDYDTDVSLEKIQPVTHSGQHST
T1 sequence (P61169 whole entry, the tested form may be a part): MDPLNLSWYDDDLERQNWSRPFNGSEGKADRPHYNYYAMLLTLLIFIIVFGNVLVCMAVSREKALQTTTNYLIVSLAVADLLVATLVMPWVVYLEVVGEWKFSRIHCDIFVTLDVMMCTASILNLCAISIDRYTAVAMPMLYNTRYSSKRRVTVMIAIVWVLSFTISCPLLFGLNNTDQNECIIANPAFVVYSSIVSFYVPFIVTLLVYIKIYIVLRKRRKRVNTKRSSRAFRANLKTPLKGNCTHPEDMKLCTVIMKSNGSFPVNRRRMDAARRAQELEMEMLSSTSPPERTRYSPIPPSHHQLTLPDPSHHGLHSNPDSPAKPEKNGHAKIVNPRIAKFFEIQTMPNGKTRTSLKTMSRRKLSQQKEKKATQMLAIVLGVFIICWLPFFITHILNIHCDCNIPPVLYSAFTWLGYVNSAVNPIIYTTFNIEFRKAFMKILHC

Row | Structure (SMILES) | IC50 [1] [nM] | IC50 [2] [nM] | IC50 [3] [nM]
1 | CCN(C(=O)OCCCN1CCC(c2noc3cc(F)ccc23)CC1)c1ccc2c(c1)OCO2 [Example 2, 4-(6-Fluoro-1,2-benzisoxazol-3-yl)-1-(3-(N-ethyl-N-(3,4-methylenedioxyphenyl)carbamoyloxy)propylpiperidine, oxalate] | 18 | 30 | 6.7
2 | CN(C(=O)OCCCN1CCC(c2noc3cc(F)ccc23)CC1)c1ccccc1 [Example 3, 4-(6-Fluoro-1,2-benzisoxazol-3-yl) -1-(3-(N-methyl-N-phenylcarbamoyloxy)propyl)piperidine, oxalate] | 8.9 | 43 | 6.9
